Assay results: US20120136011A1, “COMPOUNDS AND METHODS FOR SKIN REPAIR” (ALLERGAN, INC., priority 2010, published 2012)

Experiments:
Sprague-Dawley rats [1] = assay: Incisional skin wound model, 14 day pilot study, topical treatment; format: in vivo
Description: (§1) Incisional Skin Wound Model and Assessment. Sprague-Dawley rats at 180-200 gram were anesthetized with isoflourane. After shaving, a 2-cm long incision was made, reaching the deep fascia on the back skin of rats under sterile conditions. The wounds were immediately closed with 4-0 sutures. A 14 day pilot study was carried out. The animals were topically treated with vehicle or Compound 1 at 0.004% twice daily. The vehicle contained ethanol 30%, propylene glycol 12%, dipropylene glycol 5%, benzyl alcohol 5%, glycerol 3% and normal saline 45%. The wound was photographed daily; biopsy was performed at 2, 3, 7 and 14 days post-surgery for histopathology and molecular biology analysis.
(§2) The wound tissue was biopsied for histopathology on day 3, 14 and 70. To observe the skin wound, paraffin-embedded wound sections were made. Regular H&E staining was carried out in comparison with Masson trichrome and/or Picosirus red to visualize the collagen fibers. To monitor myofibroblasts in skin wound, the sections were immunohistochemically stained to identify alpha-smooth muscle actin. To assess wound appearance, all the scar photos were mixed together by the end of each study. The scar severity was scored on a scale of 0 to 10, with 0 being invisible, 1 the minimal and 10 the worst. Each scar was divided into 4 regions, separated by suture sites; each quarter was scored independently; the mean of the 4 part scores was recorded as the gross score of each wound.

Sprague-Dawley rats [2] = assay: Incisional skin wound study comparing Compound 1 and TGF-β3 (intradermal injection, then topical); format: in vivo; conditions: for number of neutrophils counted in three sections of H&E stained tissues: 3 days post-surgery, n=5, vehicle 60.6±30, not statistically significant; for macroscopic surface appearance of wound sites / abnormal regions (dense, red, fine parallel fibers) on Picrosirius red stained sections: 70 days post-surgery; for abnormal regions (dense, red, fine parallel fibers) on Picrosirius red stained sections: versus vehicle; for widths of the abnormal structured dermis regions, Masson trichrome / gap width in-between the normal fibrils, Picrosirius red / collagen fibril type at wound sites, Picrosirius red under polarized light: day 14; for widths of the abnormal structured dermis regions, Masson trichrome / size of residual scar regions, Masson trichrome: versus vehicle treated group, p<0.01-0.05; for gap width in-between the normal fibrils, Picrosirius red: versus vehicle-treated group, p<0.05; for collagen fibril type at wound sites, Picrosirius red under polarized light: yellow large bundles versus green type III collagen; for size of residual scar regions, Masson trichrome: day 70
Description: as §1
A similar skin wound study was also performed comparing the effects of Compound 1 and TGF-β3. In this study, intradermal injections of Compound 1 at 0.004%, TGF-β3 at 100 ng/200 μl or vehicle were given right before closing the wounds. Afterward, TGF-β3 was injected two more times, on day 1 and 2, and Compound 1 and vehicle were topically applied twice a day for the duration of the study. The vehicle was PBS with 0.1% BSA and 4 mM HCl in a total volume of 200 μl for injection. Skin wounds were imaged on day 3, 7, 14, and 70.
as §2

[3] = system: human fetal skin fibroblasts (CRL-7129); assay: Collagen type I production in cultured fetal skin fibroblasts (Western blot); format: cell-based
[4] = system: human adult skin fibroblasts (CRL-7346); assay: Collagen type I production in cultured adult skin fibroblasts (Western blot); format: cell-based
[5] = day 14, Masson Trichrome, versus vehicle
[6] = vehicle 100%, 48 hours treatment

Compound	epidermal layer thickness and structure at wound site (Sprague-Dawley rats [1]; 7 days post-skin incision, 0.004% topical twice daily)	epidermal thickness of vehicle-treated skin relative to Compound 1 treated epidermis (Sprague-Dawley rats [1]; 7 days post-skin incision, vehicle had epidermal hyperplasia)	gross skin scar appearance (Sprague-Dawley rats [1]; 14 days post-surgery, versus vehicle-treated animals)	overall size of epidermal defects, vehicle-treated versus Compound 1 treated wounds (Sprague-Dawley rats [1]; day 3 post-surgery, 0.004% topical twice daily)	skin wound samples showing closed epidermis filled with keratinocytes (Sprague-Dawley rats [1]; day 3 post-surgery, 0.004% topical twice daily, vehicle 33%)	number of myofibroblasts (α-SMA-positive cells) (Sprague-Dawley rats [1]; day 3 samples, vehicle control 38±6.15/3 sections)	scar width (abnormal fiber belt) in the middle and bottom parts of scars (Sprague-Dawley rats [1]; [5])	scar width at the superficial region (Sprague-Dawley rats [1]; [5])	neutrophil (polymorphonuclear cell) infiltration at wound sites (Sprague-Dawley rats [1]; days 2 and 3 post-surgery, versus vehicle)	number of neutrophils counted in three sections of H&E stained tissues (Sprague-Dawley rats [2])	macroscopic surface appearance of wound sites (Sprague-Dawley rats [2])	abnormal regions (dense, red, fine parallel fibers) on Picrosirius red stained sections (Sprague-Dawley rats [2])	widths of the abnormal structured dermis regions, Masson trichrome (Sprague-Dawley rats [2])	gap width in-between the normal fibrils, Picrosirius red (Sprague-Dawley rats [2])	collagen fibril type at wound sites, Picrosirius red under polarized light (Sprague-Dawley rats [2])	size of residual scar regions, Masson trichrome (Sprague-Dawley rats [2])	collagen type-1 production (in words) [3]	collagen type-1 production relative to vehicle [3, 6]	collagen type-1 production (in words) [4]	collagen type-1 production relative to vehicle [4, 6]
CC1(C)C(=O)[C@H](C/C=C\CCCC(=O)O)[C@@H](/C=C/[C@H](O)CCc2sc3ccccc3c2Cl)[C@@H]1O [Compound 1]	thickness close to the nearby normal epidermis	3 times	smaller and softer skin scar	two times larger for vehicle-treated wounds	80%	25.8±7.45 /3 sections	significantly reduced	only a tendency to decrease	significantly reduced	31.4±8	wound sites were not even detectable	largely absent	significantly smaller	significantly narrower	large yellow-stained collagen bundles almost crossing over the entire wound sites	remarkably smaller	upregulated	200%	upregulated	128%
TGF-β3: a leading treatment for wounds, reportedly reducing skin scar in both animals and human	–	–	–	–	–	–	–	–	–	53.8±17	still showed traces of wounds	largely absent	significantly smaller	significantly narrower	some green fibers at the bottom of the wounds	remarkably smaller	–	–	–	–
